From US9868733B2, “Azabenzimidazole tetrahydrofuran derivatives” (Merck Sharp & Dohme Corp., priority 2012, dated 2018)

What was measured:
ob/ob and db/db mice = conditions: following 8 weeks of administration; cited from earlier work
[1] = target: recombinant human AMPK complex 7 (containing α2β1γ1) (Homo sapiens, UniProt P54646+Q9Y478); test: in vitro AMPK activation assay (AMPKSAMSF); assay type: biochemical; conditions: for EC50: inflection point reflecting 50% of the maximum activation, human AMPK Complex 7; for Emax: recombinant human AMPK complex 7 (α2β1γ1), 10-point titration expressed as % maximum AMP activation
Protocol: The recombinant human AMPK complex 1 (containing α1β1γ1) or AMPK complex 7 (containing α2β1γ1) was obtained from baculovirus expression system. Recombinant viruses were generated by cotransfection of AMPK/pBacPak9 clones with Baculogold baculovirus DNA (Pharmingen) in spodoptera frugiperda 21 cells according to the manufacturer's instructions. Each round of virus amplification was performed for 5 days in Grace's medium containing 10% serum. Virus that had been subjected to three rounds of amplification was used for all protein production procedures. To express the AMPK complex, sf21 cells were adapted to serum free medium (SF900 II, Invitrogen) by sequential dilution from serum containing stocks into SF900II medium and maintained in shaker flasks at 90 rpm at 27° C. The recombinant AMPK enzyme complex was produced by triple infection, one recombinant virus for each of the subunits, in sf21 cells under serum free conditions. Cells were infected in log phase, 1×10^6 cells/ml, at a multiplicity of infection of ˜5. Cells were harvested by centrifugation at 10,000×g for 15 minutes after 72 hours of infection with viruses. The insect cell pellet from 2 liters of culture was resuspended in 50 ml lysis buffer (20 mM Tris-HCl, 50 mM NaCl, 50 mM NaF, 30 mM Na PPi, 0.25 M sucrose, 10 mM ZnCl2, 2 mM DTT, 0.4 mg/ml digitonin) and subjected to two cycles of freeze-thaw lysis in a dry-ice ethanol bath. Insoluble material was removed by centrifugation at 10,000×g and the supernatant was fractionated with use of polyethylene glycol (PEG). The protein fraction precipitating between 2.5 and 6% PEG was used for further purification using a Blue-Sepharose step (Zhou et al, J. Clin. Invest. 108, 1167-1174, 2001).
The in vitro AMPK activation assay is performed in a volume of 30 μl in a 384-well plate. Enzyme reactions were assembled in the microtiter plate by adding 15 μl of 2× enzyme in assay buffer (20 mM HEPES, pH 7.3, 5 mM MgCl2, 3 mM DTT, 0.01% Brij 35 and CamK Kinase, to activate AMPK) to wells which contained either DMSO or compound. The reaction was initiated with the addition of 15 μl 2× substrate mixture containing 200 μM ATP, and 3.0 μM fluorescently labeled SAMS (5-FAM-HMRSAMSGLHLVKRR-COOH) in assay buffer. After 45-minute incubation at 25° C., the reaction was stopped by the addition of 70 μl stop buffer (100 mM HEPES, pH 7.3, 40 mM EDTA, 0.015% Brij 35). Phosphorylated 5-FAM SAMS product is assessed using a Caliper EZ Reader LabChip microfluidics reader. Product conversion is determined by calculating the peak heights of the substrate and product and reporting the product/(product+substrate) peak ratio. The 10-point titration data were expressed as % maximum AMP activation. The results were plotted using 4 parameter fit and the inflection point reflecting 50% of the maximum activation was reported as the EC50.

Chain of recombinant human AMPK complex 7 (containing α2β1γ1) (P54646 whole entry): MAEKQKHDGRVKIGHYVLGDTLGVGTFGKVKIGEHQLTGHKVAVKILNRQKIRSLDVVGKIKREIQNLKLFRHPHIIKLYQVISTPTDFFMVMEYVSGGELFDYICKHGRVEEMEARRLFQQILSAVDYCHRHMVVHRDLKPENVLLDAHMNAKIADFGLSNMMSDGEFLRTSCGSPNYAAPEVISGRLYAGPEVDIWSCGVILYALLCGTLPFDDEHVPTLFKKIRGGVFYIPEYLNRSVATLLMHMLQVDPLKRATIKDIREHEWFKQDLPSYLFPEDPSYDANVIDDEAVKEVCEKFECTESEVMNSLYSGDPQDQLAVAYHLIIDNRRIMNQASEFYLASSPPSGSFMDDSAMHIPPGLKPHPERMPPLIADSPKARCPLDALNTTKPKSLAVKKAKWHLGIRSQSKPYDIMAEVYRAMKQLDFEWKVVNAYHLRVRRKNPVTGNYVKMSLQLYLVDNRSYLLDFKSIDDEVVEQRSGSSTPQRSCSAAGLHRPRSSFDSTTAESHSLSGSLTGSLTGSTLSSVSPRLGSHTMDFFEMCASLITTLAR
Chain of recombinant human AMPK complex 7 (containing α2β1γ1) (Q9Y478 whole entry): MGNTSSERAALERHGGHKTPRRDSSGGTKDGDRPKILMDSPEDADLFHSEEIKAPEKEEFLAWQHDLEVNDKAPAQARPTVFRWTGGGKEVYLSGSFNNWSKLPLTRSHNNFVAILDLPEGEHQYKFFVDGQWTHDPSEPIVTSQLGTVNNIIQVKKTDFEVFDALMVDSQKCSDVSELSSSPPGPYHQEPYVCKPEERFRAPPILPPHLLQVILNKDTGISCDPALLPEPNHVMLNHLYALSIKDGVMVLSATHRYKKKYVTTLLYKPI
Chain of recombinant human AMPK complex 7 (containing α2β1γ1) (P54619 whole entry partner): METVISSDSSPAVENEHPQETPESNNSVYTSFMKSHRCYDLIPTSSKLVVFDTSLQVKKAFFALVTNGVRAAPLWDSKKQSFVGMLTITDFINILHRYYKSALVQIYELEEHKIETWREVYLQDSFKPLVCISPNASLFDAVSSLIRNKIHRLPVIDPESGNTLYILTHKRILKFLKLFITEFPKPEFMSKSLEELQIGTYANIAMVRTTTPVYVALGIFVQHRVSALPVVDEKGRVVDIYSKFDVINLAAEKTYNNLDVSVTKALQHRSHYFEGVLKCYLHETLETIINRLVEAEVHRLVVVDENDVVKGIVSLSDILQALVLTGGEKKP

EC50 [1] [nM]	Emax [1] [%]	Structure (SMILES)	blood glucose reduction (ob/ob and db/db mice) [%]
–	–	NC(=O)c1ncn([C@@H]2O[C@H](CO)[C@@H](O)[C@H]2O)c1N [AICAR]	35
16	188	OC[C@H]1OC[C@@H](Oc2nc3nc(-c4ccc(-c5ccc(-n6cccn6)nc5)cc4)c(Cl)cc3[nH]2)[C@@H]1O [Example 1, (2R,3R,4R)-4-[[6-chloro-5-[4-(6-pyrazol-1-yl-3-pyridyl)phenyl]-1H-imidazo[4,5-b]pyridin-2-yl]oxy]-2-(hydroxymethyl)tetrahydrofuran-3-ol]	–
4	315	OC[C@H]1OC[C@@H](Oc2nc3nc(-c4ccc(-c5ccc(-n6cccn6)cc5)cc4)c(Cl)cc3[nH]2)[C@@H]1O [Example 2]	–
13	338	OC[C@H]1OC[C@@H](Oc2nc3nc(-c4ccc(-c5ccccc5)cc4)c(Cl)cc3[nH]2)[C@@H]1O [Example 3]	–
20	206	OC[C@H]1OC[C@@H](Oc2nc3nc(-c4ccc(-c5ccc(-n6nccn6)cc5)cc4)c(Cl)cc3[nH]2)[C@@H]1O [Example 4, (2R,3R,4R)-4-[[6-chloro-5-[4-[4-(triazol-2-yl)phenyl]phenyl]-1H-imidazo[4,5-b]pyridin-2-yl]oxy]2-(hydroxymethyl)tetrahydrofuran-3-ol]	–
2	261	OC[C@H]1OC[C@@H](Oc2nc3nc(-c4ccc(-c5ccc(-n6cncn6)cc5)cc4)c(Cl)cc3[nH]2)[C@@H]1O [Example 5, (2R,3R,4R)-4-[[6-chloro-5-[4-[4-(1,2,4-triazol-1-yl)phenyl]phenyl]-1H-imidazo[4,5-b]pyridin-2-yl]oxy]-2-(hydroxymethyl)tetrahydrofuran-3-ol]	–
5	268	CC(C)(O)Cc1cnn(-c2ccc(-c3ccc(-c4nc5nc(O[C@@H]6CO[C@H](CO)[C@H]6O)[nH]c5cc4Cl)cc3)cc2)c1 [Example 6]	–
3	282	OC[C@H]1OC[C@@H](Oc2nc3nc(-c4ccc(-c5ccc(-n6cnnn6)cc5)cc4)c(Cl)cc3[nH]2)[C@@H]1O [Example 7, (2R,3R,4R)-4-[[6-chloro-5-[4-[4-(tetrazol-1-yl)phenyl]phenyl]-1H-imidazo[4,5-b]pyridin-2-yl]oxy]-2-(hydroxymethyl)tetrahydrofuran-3-ol]	–
9	332	CC(C)(O)Cn1cc2c(n1)CN(c1ccc(-c3nc4nc(O[C@@H]5CO[C@H](CO)[C@H]5O)[nH]c4cc3Cl)cc1)C2 [Example 8, (2R,3R,4R)-4-[[6-chloro-5-[4-[2-(2-hydroxy-2-methyl-propy)-4,6-dihydropyrrolo[3,4-c]pyrazol-5-yl]phenyl]-1H-imidazo[4,5-b]pyridin-2-yl]oxy]-2-(hydroxymethyl)-tetrahydrofuran-3-ol; 2,2,2-trifluoroacetic acid]	–
11	294	CC(C)(F)Cn1cc2c(n1)CN(c1ccc(-c3nc4nc(O[C@@H]5CO[C@H](CO)[C@H]5O)[nH]c4cc3Cl)cc1)C2 [Example 9, (2R,3R,4R)-4-[[6-chloro-5-[4-[2-(2-fluoro-2-methyl-propyl)-4,6-dihydropyrrolo[3,4-c]pyrazol-5-yl]phenyl]-1H-imidazo[4,5-b]pyridin-2-yl]oxy]-2-(hydroxymethyl)tetrahydrofuran-3-ol]	–
3650	209	OC[C@H]1OC[C@@H](Oc2nc3nc(-c4ccc(Br)cc4)c(Cl)cc3[nH]2)[C@@H]1O [Example 10, (2R,3R,4R)-4-[[5-(4-bromophenyl)-6-chloro-1H-imidazo[4,5-b]pyridin-2-yl]oxy]-2-(hydroxymethyl)tetrahydrofuran-3-ol]	–
332	313	O=C(O)[C@H]1OC[C@@H](Oc2nc3nc(-c4ccc(-c5ccccc5)cc4)c(Cl)cc3[nH]2)[C@@H]1O [Example 12, (2S,3S,4R)-4-[[6-chloro-5-(4-phenylphenyl)-1H-imidazo[4,5-b]pyridin-2-yl]oxy]-3-hydroxy-tetrahydrofuran-2-carboxylic acid]	–
289	203	C[C@]1(O)[C@@H](CO)OC[C@H]1Oc1nc2nc(-c3ccc(-c4ccccc4)cc3)c(Cl)cc2[nH]1 [Example 14, (2R,3S,4R)-4-[[6-chloro-5-(4-phenylphenyl)-1H-imidazo[4,5-b]pyridin-2-yl]oxy]-2-(hydroxymethyl)-3-methyl-tetrahydrofuran-3-ol]	–
32	294	OC[C@H]1OC[C@@H](Oc2nc3nc(-c4ccc(-c5ccccc5F)cc4)c(Cl)cc3[nH]2)[C@@H]1O [Example 18]	–
126	231	OC[C@H]1OC[C@@H](Oc2nc3nc(-c4ccc(-c5cccc(F)c5)cc4)c(Cl)cc3[nH]2)[C@@H]1O [Example 19]	–
8	242	N#CCCn1nnnc1-c1ccc(-c2ccc(-c3nc4nc(O[C@@H]5CO[C@H](CO)[C@H]5O)[nH]c4cc3Cl)cc2)cc1 [Example 20]	–
85	307	OC[C@H]1OC[C@@H](Oc2nc3nc(-c4ccc(-c5ccc(F)cc5F)cc4)c(Cl)cc3[nH]2)[C@@H]1O [Example 21]	–
5	252	OC[C@H]1OC[C@@H](Oc2nc3nc(-c4ccc(-c5ccc(N6CCOCC6)cc5)cc4)c(Cl)cc3[nH]2)[C@@H]1O [Example 22]	–
38	231	OC[C@H]1OC[C@@H](Oc2nc3nc(-c4ccc(-c5ccc(F)cc5)cc4)c(Cl)cc3[nH]2)[C@@H]1O [Example 23]	–
